In patent publication US6911443B2 (Bayer Aktiengesellschaft, priority 2000, dated 2005):
Read-outs that look alike come from different tables or passages of the source.

Target: T1, human Syk (GST-Syk) (Homo sapiens, UniProt P43405)
T1 construct: A cDNA fragment encoding human Syk openreading frame was cloned; made in house; host or cells: Sf21 insect cells (baculovirus, transfer vector pAcG2T)
Assay: Syk tyrosine kinase inhibitory assay
Assay type: biochemical
In short: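 Readout: streptavidin-captured biotin-AL peptide probed with europium-4G10 anti-phosphotyrosine, time-resolved fluorescence (ex 340/em 615 nm). Reaction ran 1 h at room temperature with 30 μM ATP, 3 μM peptide, 0.65 nM Sf21-expressed GST-Syk and 0.25% DMSO, pH 8.0.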

[1] = Table 13, read-out: Activity grade
[2] = Table 11, read-out: Activity grade
[3] = in vitro, compounds as yielded by solid phase synthesis, purity about 40 to 90%, read-out: Activity grade (IC50 class)
[4] = Table 17, IC50 classes, read-out: Activity grade
[5] = in vitro, compounds as yielded by solid phase synthesis, purity about 40 to 90%
[6] = Table 16, read-out: Activity grade

IC50 [3]	Structure (SMILES)	other results
–	CCC(C)CSc1nc(-c2ccc(OC)c(OC)c2)cc2nccn12 (stereo not drawn) [Example 14-23]	IC50 [1]: 500 to 2000 nM
–	COCCN(C)c1ccc(-c2cc3nccn3c(Nc3ccc(OC)cc3)n2)cc1OC [Example 12-51]	IC50 [2]: < 500 nM
500 to 2000 nM	COc1ccc(-c2cc3nccn3c(N3CCSCC3)n2)cc1OC [Example 9-75]	–
500 to 2000 nM	COc1ccc(-c2cc3nccn3c(Sc3cccc(C(=O)O)c3)n2)cc1OC [Example 9-93]	–
–	COc1ccc(-c2cc3nccn3c(Sc3ccc(SCC(=O)O)cc3)n2)cc1OC [Example 15-3]	IC50 (Table 14, read-out: Activity grade): < 500 nM
< 500 nM	COc1ccc(-c2cc3nccn3c(Nc3cc(N)ccc3C(N)=O)n2)cc1OC [Example 11]	IC50 [4]: < 500 nM
–	CCSc1nc(-c2ccc(S(=O)(=O)N3CCC(C(=O)O)CC3)c(OC)c2)cc2nccn12 [Example 2-10]	Activity grade (IC50 class) [5]: C-D
–	COc1ccc(-c2cc3nccn3c(N3CCN(c4ccc(Cl)c(Cl)c4)CC3)n2)cc1OC [Example 9-42]	Activity grade (IC50 class) [5]: C-D
500 to 2000 nM	COc1ccc(-c2cc3nccn3c(N3CCN(C)CC3)n2)cc1OC [Example 9-37]	–
< 500 nM	COc1ccc(Nc2nc(-c3ccc(OC)c(OC)c3)cc3nccn23)c(C)c1 [Example 11-2]	–
500 to 2000 nM	CCSc1nc(-c2ccsc2)cc2nccn12 [Example 8-5]	–
–	COc1cc(-c2cc3nccn3c(Nc3ccccc3S(C)(=O)=O)n2)ccc1N1CCOCC1 [Example 12-57]	IC50 [2]: < 500 nM
< 500 nM	COc1ccc(-c2cc3nccn3c(Nc3ccccc3S(=O)(=O)N(C)C)n2)cc1OC [Example 11-123]	–
2000 to 10000 nM	COc1ccc(-c2cc3nccn3c(N3CCN(CCO)CC3)n2)cc1OC [Example 9-51]	–
500 to 2000 nM	COc1ccc(-c2cc3nccn3c(N3CCN(c4ccccn4)CC3)n2)cc1OC [Example 9-38]	–
< 500 nM	COc1ccc(Nc2nc(-c3ccc(OCCN4CCOCC4)c(OC)c3)cc3nccn23)cc1 [Example 9-96]	–
< 500 nM	COc1cc(-c2cc3nccn3c(Sc3ccc(CCC(=O)O)cc3)n2)ccc1OCc1ccccc1 [Example 13-26]	–
–	COc1cc(-c2cc3nccn3c(Nc3ccccc3)n2)ccc1OCCCN1CCOCC1 [Example 12-16]	IC50 [2]: < 500 nM
500 to 2000 nM	CCSc1nc(-c2cccc(OC)c2)cc2nccn12 [Example 8-1]	–
< 500 nM	CCSc1nc(-c2ccc(OCCCN3CCN(C)CC3)c(OC)c2)cc2nccn12 [Example 5-8]	–
2000 to 10000 nM	COc1ccc(-c2cc3nccn3c(N3CCN(C(=O)c4ccco4)CC3)n2)cc1OC [Example 9-46]	–
< 500 nM	CCSc1nc(-c2ccc(OCCCN3CCOCC3)c(OC)c2)cc2nccn12 [Example 5-1]	–
–	COc1ccc(-c2cc3nccn3c(Nc3ccc(N)cc3C(N)=O)n2)cc1OC [Example 33]	IC50 [4]: < 500 nM
< 500 nM	COc1ccc(-c2cc3nccn3c(Sc3ccc(CCC(=O)O)cc3)n2)cc1OC(C)=O [Example 13-25]	–
< 500 nM	COc1ccc(Nc2nc(-c3ccc(OC)c(OC)c3)cc3nccn23)cc1OC [Example 11-84]	–
< 500 nM	COc1ccc(-c2cc3nccn3c(Sc3cccc(CC(O)O)c3)n2)cc1OC [Example 13-20]	–
–	COc1ccc(-c2cc3ncnn3c(Oc3ccc(CCC(=O)O)cc3)n2)cc1OC [Example 14-12]	IC50 [1]: 500 to 2000 nM

IC50 [3]	Structure (SMILES)	other results
< 500 nM	COC(=O)c1ccc(Nc2nc(-c3ccc(OC)c(OC)c3)cc3nccn23)cc1 [Example 11-26]	–
500 to 2000 nM	CCSc1cc(-c2cccc([N+](=O)[O-])c2)cc2nccn12 [Example 8-6]	–
< 500 nM	CCOC(=O)CCSc1nc(-c2ccc(OC)c(OC)c2)cc2nccn12 [Example 9-28]	–
–	COc1ccc(-c2cc3nccn3c(Nc3ccc4[nH]ncc4c3)n2)cc1OC [Example 12-2]	IC50 [2]: < 500 nM
< 500 nM	COc1ccc(-c2cc3nccn3c(Nc3ccc(C(N)=O)c(N)c3)n2)cc1OC [Example 11-129]	–
< 500 nM	COc1ccc(-c2cc3nccn3c(Nc3cccc(S(C)(=O)=O)c3)n2)cc1OC [Example 11-120]	–
500 to 2000 nM	COc1ccc(-c2cc3nccn3c(N(C)c3ccc(OC(F)(F)F)cc3)n2)cc1OC [Example 11-46]	–
–	CCOC(=O)CN1CCN(c2nc(-c3ccc(OC)c(OC)c3)cc3nccn23)CC1 [Example 9-73]	Activity grade (IC50 class) [5]: C-D
–	COc1cc(-c2cc3nccn3c(Nc3ccc(C)cc3)n2)ccc1N1CCOCC1 [Example 12-47]	IC50 [2]: < 500 nM
–	CCSc1nc(-c2ccc(OC)c(NCCN(C)C)c2)cc2nccn12 [Example 17-8]	IC50 [6]: 500 to 2000 nM
–	COc1cc(-c2cc3nccn3c(Nc3ccccc3)n2)ccc1NCCCN1CCCC1=O [Example 12-40]	IC50 [2]: < 500 nM
< 500 nM	C=CCSc1nc(-c2ccc(OC)c(OC)c2)cc2nccn12 [Example 9-8]	–
500 to 2000 nM	CCSc1nc(-c2ccc(SC)cc2)cc2nccn12 [Example 1-12]	–
–	COc1cc(-c2cc3nccn3c(Nc3ccc(C(F)(F)F)cc3)n2)ccc1N1CCOCC1 [Example 12-49]	IC50 [2]: < 500 nM
< 500 nM	COc1ccc(Nc2nc(-c3ccc(N4CCOCC4)c(OC)c3)cc3nccn23)c(C(N)=O)c1 [Example 9-98]	–
–	CCSc1nc(-c2ccc(N(C)CCCN3CCOCC3)c(OC)c2)cc2nccn12 [Example 17-17]	IC50 [6]: < 500 nM
< 500 nM	COc1ccc(-c2cc3nccn3c(SCc3ccccc3Cl)n2)cc1OC [Example 9-27]	–
–	COc1cc(-c2cc3nccn3c(Nc3ccc(Cl)cn3)n2)ccc1N1CCOCC1 [Example 12-48]	IC50 [2]: < 500 nM
< 500 nM	COc1cc(-c2cc3nccn3c(Sc3ccc(CCC(=O)O)cc3)n2)ccc1OCCN1CCOCC1 [Example 13-28]	–
< 500 nM	COc1ccc(Nc2nc(-c3ccc(OC)c(OC)c3)cc3nccn23)cc1O [Example 11-92]	–
500 to 2000 nM	COc1ccc(-c2cc3nccn3c(N3CCc4ccccc43)n2)cc1OC [Example 9-13]	–
< 500 nM	COc1ccc(-c2cc3nccn3c(Sc3ccccc3CO)n2)cc1OC [Example 13-7]	–
< 500 nM	COc1ccc(Nc2nc(-c3ccc(OC)c(OC)c3)cc3nccn23)c(OC)c1 [Example 11-65]	–
–	COC(=O)c1cccnc1Nc1nc(-c2ccc(OC)c(OC)c2)cc2nccn12 [Example 14-36]	IC50 [1]: 2000 to 10000 nM
–	CCSc1nc(-c2ccc(OC(=O)N(C)C)c(OC)c2)cc2nccn12 [Example 3-12]	IC50 (Activity grade (IC50 class), in vitro, compounds as yielded by solid phase synthesis, purity about 40 to 90%): 2000 to 10000 nM
< 500 nM	COc1ccc(Nc2nc(-c3ccc(OC)c(OC)c3)cc3nccn23)cc1 [Example 11-17]	–
2000 to 10000 nM	COc1ccc(-c2cc3nccn3c(Nc3ccccc3C(=O)NN)n2)cc1OC [Example 11-13]	–

IC50 [3]	Structure (SMILES)	other results
–	COc1cc(-c2cc3nccn3c(Nc3ccccc3)n2)ccc1OCCN1CCOCC1 [Example 12-26]	IC50 [2]: < 500 nM
–	COc1ccc(-c2cc3nccn3c(Sc3ccc(CC(=O)O)cc3)n2)cc1OC [Example 13-19]	Activity grade (IC50 class) [5]: C-D
–	COCCN(C)c1ccc(-c2cc3nccn3c(Nc3ccc(C(F)(F)F)cc3)n2)cc1OC [Example 12-43]	IC50 [2]: < 500 nM
–	COc1ccc(-c2cc3nccn3c(Nc3ccc(CC(N)C(=O)OC(C)C)cc3)n2)cc1OC (stereo not drawn) [Example 29]	IC50 [4]: < 500 nM
< 500 nM	COc1ccc(-c2cc3nccn3c(Nc3ccc(CCC(=O)O)cc3)n2)cc1OC [Example 11-24]	–
–	COc1ccc(-c2cc3nccn3c(-c3ccccc3)n2)cc1OC [Example 34]	IC50 [4]: 500 to 2000 nM
< 500 nM	COc1ccc(-c2cc3nccn3c(Nc3ccccc3)n2)cc1OC [Example 11-16]	–
–	COc1ccc(-c2cc3nccn3c(Sc3ccc(CCC(N)=O)cc3)n2)cc1OC [Example 20]	IC50 [4]: < 500 nM
–	COc1ccc(-c2cc3nccn3c(NC3=NNCS3)n2)cc1OC [Example 12-31]	IC50 [2]: 500 to 2000 nM
< 500 nM	CCSc1nc(-c2ccc(OCCCN3CCC(C(N)=O)CC3)c(OC)c2)cc2nccn12 [Example 5-13]	–
–	COc1ccc(-c2cc3nccn3c(SCCC(C)C)n2)cc1OC [Example 14-28]	IC50 [1]: 500 to 2000 nM
–	CCSc1nc(-c2ccc(N(C)CCOC)c(OC)c2)cc2nccn12 [Example 12-50]	IC50 [2]: < 500 nM
2000 to 10000 nM	COc1ccc(-c2cc3nccn3c(N(C)c3ccc(S(=O)(=O)O)cc3)n2)cc1OC [Example 11-6]	–
< 500 nM	CCCCNS(=O)(=O)c1cccc(Nc2nc(-c3ccc(OC)c(OC)c3)cc3nccn23)c1 [Example 11-73]	–
< 500 nM	CCSc1nc(-c2ccc(OC)c(S(=O)(=O)N3CCN(CCO)CC3)c2)cc2nccn12 [Example 2-3]	–
2000 to 10000 nM	COC(=O)C1CCN(c2nc(-c3ccc(OC)c(OC)c3)cc3nccn23)CC1 [Example 9-67]	–
–	COc1ccc(-c2cc3nccn3c(Oc3ccccc3Br)n2)cc1OC [Example 14-4]	IC50 [1]: 500 to 2000 nM
< 500 nM	COc1ccc(-c2cc3nccn3c(N(CCO)Cc3ccccc3)n2)cc1OC [Example 9-29]	–
500 to 2000 nM	COc1ccc(-c2cc3nccn3c(N3CCCC3)n2)cc1OC [Example 9-55]	–
–	CCOC(=O)CCNS(=O)(=O)c1ccc(-c2cc3nccn3c(SCC)n2)cc1OC [Example 2-11]	Activity grade (IC50 class) [5]: C-D
2000 to 10000 nM	COc1ccc(-c2cc3nccn3c(N3CCN(c4ccccc4F)CC3)n2)cc1OC [Example 9-47]	–
500 to 2000 nM	COc1ccc(-c2cc3nccn3c(NC3CCC(C(=O)O)CC3)n2)cc1OC (stereo not drawn) [Example 9-31]	–
–	COc1ccc(-c2cc3nccn3c(Nc3ccc(N(C)C)cc3C(N)=O)n2)cc1OC [Example 32]	IC50 [4]: < 500 nM
–	COc1ccc(-c2cc3nccn3c(Oc3ccc(Br)cc3)n2)cc1OC [Example 14-6]	IC50 [1]: 500 to 2000 nM
< 500 nM	COc1ccc(-c2cc3nccn3c(Nc3ccc4[nH]nnc4c3)n2)cc1OC [Example 11-12]	–
< 500 nM	COc1ccccc1Nc1nc(-c2ccc(OC)c(OC)c2)cc2nccn12 [Example 11-8]	–
